Laboratory results published in article PMC7435853, “L-Malate (−2) Protonation State is Required for Efficient Decarboxylation to L-Lactate by the Malolactic Enzyme of Oenococcus oeni” (Molecules, 2020).

Target: T1, malolactic enzyme (MLE) (Oenococcus oeni, UniProt Q04DQ3)
T1 construct: gene OEOE_1564; full-length gene (1626 bp), His-tagged (HisTrap) from pET vector (text says pET28a and pET21a), E. coli BL21(DE3); reported dimer
T1 sequence (Q04DQ3 1-541): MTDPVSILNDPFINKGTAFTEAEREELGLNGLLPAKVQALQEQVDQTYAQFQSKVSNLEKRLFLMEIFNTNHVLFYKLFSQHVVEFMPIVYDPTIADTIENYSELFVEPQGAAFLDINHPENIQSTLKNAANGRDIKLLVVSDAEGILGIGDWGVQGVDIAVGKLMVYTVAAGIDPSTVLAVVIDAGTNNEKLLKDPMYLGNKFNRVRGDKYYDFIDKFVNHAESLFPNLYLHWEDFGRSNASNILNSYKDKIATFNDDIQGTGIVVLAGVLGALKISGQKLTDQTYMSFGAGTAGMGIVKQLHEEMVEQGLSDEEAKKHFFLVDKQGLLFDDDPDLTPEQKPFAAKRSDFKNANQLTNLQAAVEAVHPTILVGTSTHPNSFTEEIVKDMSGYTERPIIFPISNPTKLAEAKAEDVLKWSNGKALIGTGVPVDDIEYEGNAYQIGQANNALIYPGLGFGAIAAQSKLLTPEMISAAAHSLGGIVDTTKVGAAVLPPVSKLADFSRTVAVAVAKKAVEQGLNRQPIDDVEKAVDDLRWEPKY
Assay: isothermal titration calorimetry
Format: binding
From the text: isothermal titration calorimetry on malolactic enzyme (MLE)

Kd [nM] | Compound
3190 | O=C(O)C[C@H](O)C(=O)O [MAL^−, L-malate (−1)]
1290 | O=C(O)C[C@H](O)C(=O)O [MAL^2−, L-malate (−2)]
